In patent US7087252B2, “Medicinal preparation containing phenylethanoid glycosides extracted from herbaceous plant, Cistanche tubulosa (Schrenk.) Wight, process of making the same, and uses of the same” (Sinphar Pharmaceutical Co., Ltd., priority 2003, dated 2006):

Tests used:
[1] = test system: thrombosis of the vein bypass of rats; test: Thrombosis of the vein bypass of rats; assay type: in vivo, male SD rats; conditions: 100 mg/kg orally
Source text: A study was done on the effect of the preparation of the present invention on thrombosis of the vein bypass of the rats. The male SD rats were studied as compared with the aspirin. Thrombosis inhibition rate (%)=(distilled water comparative group thrombosis weight−drug group thrombosis weight)/distilled water comparative group thrombosis weight×100%.

[2] = test system: blood platelets aggregation of rats; test: ADP-caused aggregation of blood platelets of rats after oral administration; assay type: in vivo, male SD rats; conditions: 100 mg/kg orally for 7 days
Procedure: A study was done on the effect of the preparation of the present invention on aggregation of blood platelets of the rats.
The aggregation of blood platelets was caused by using adenosine disodium diphosphate (ADP). 1 mg/ml ADP solution was kept refrigerated before use. When the ADP solution was about to be used, it was diluted three times with the phosphoric acid buffer solution.
The male SD rats were randomly divided into five groups in accordance with the body weight. These five groups were the distilled water comparative group, the aspirin group, the 200 mg/kg preparation group, the 100 mg/kg preparation group, and the 50 mg/kg preparation group. The drugs were orally administered, with the administration volume being […]. The rats of the distilled water comparative group were given distilled water in same quantity. The administration continued for 7 days. The rats were not fed for 12 hours prior to the final administration. One hour after the final administration the blood was drawn out from the main artery. The blood so draw out was prevented from aggregation by 3.8% sodium citrate (1:9). […] The aggregation degree was determined by using a SPA-4 multifunctional blood platelet aggregation meter. The inhibition rate of the blood platelet aggregation is calculated by the following formula. […]

[3] = test system: learning memory of LACA mice; test: Water maze experiment, effect on learning memory of mice (d value analysis of response time); assay type: in vivo; conditions: 400 mg/kg orally vs control group; second time test; n = 27
Source text: The medicinal preparation of the present invention was used in a water maze experiment to study its effect on the learning memory of LACA mice. The Piracetam Tablets was used as a positive comparative drug for testing 6 days per week. The test lasted for 27 days. According to the data listed in the Table 2, it is readily apparent that the preparation of the present invention has a meaningful effect on the learning memory of the mice, as exemplified by the difference in the response time between the control group and the doped groups, which were respectively doped with 50 mg/kg of the preparation containing phenylethanoid glycosides, 200 mg/kg of the preparation containing phenylethanoid glycosides, and 400 mg/kg of the preparation containing phenylethanoid glycosides.

[4] = test system: memory loss of LACA mice induced by ethanol; test: Water maze experiment, prevention of memory loss induced by ethanol; assay type: in vivo; conditions: 400 mg/kg, one-week orally
Procedure: The effect of the preparation of the present invention on the prevention of memory loss by the LACA mice was studied by the water maze experiment. The mice were orally administered with the drugs. One hour after such an oral administration, they were provided with 30% ethanol 0.1 ml/10 g BW. In 30 minutes, the water maze experiment was started.

Row | SMILES | thrombosis inhibition rate ([1]; vs distilled water comparative group) [%] | thrombosis weight ([1]; x ± SD) [mg] | aggregation inhibition ([2]; vs distilled water group) [%] | maximum aggregation ([2]; ±SD) [%] | d value ≧0.5, % [3] [%] | d value ≧0.5, day [3] [days] | d value ≧0.5 sum, % [3] [%] | d value ≧0.5 sum, day (period when the response time shows meaningful difference) [3] [days] | d value ≧0.8, % [3] [%] | d value ≧0.8, day [3] [days] | Arrival at destination after being trained, Error number [4] | Arrival at destination after being trained, Time [4] [s] | Arrival at destination after being trained, error number of animal [4] | Arrival at destination after being given alcohol, Error number ([4]; 30% ethanol 0.1 ml/10 g BW) | Arrival at destination after being given alcohol, Error rate ([4]; 30% ethanol 0.1 ml/10 g BW) | Arrival at destination after being given alcohol, Group error rate ([4]; 30% ethanol 0.1 ml/10 g BW) | Arrival at destination after being given alcohol, error number of animal ([4]; 30% ethanol 0.1 ml/10 g BW)
1 | CC(=O)Oc1ccccc1C(=O)O [aspirin] | 34.97 | 29.2 ± 4.00 | 40.30 | 32.73 ± 11.14 | – | – | – | – | – | – | – | – | – | – | – | – | –
2 | NC(=O)CN1CCCC1=O [Piracetam] | – | – | – | – | 18.5 | 5 | 25.5 | 7 | 7.4 | 2 | 0/0 | 8.00 ± 0.46 | 0/0 | 54 | 9.00 times/number of animal | 5.40 times/number of animal | 6
